Source: US20040229246A1, “Diagnostic markers for therapeutic treatment” (Can-Fite Biopharam Ltd., priority 2002, published 2004)

How the values were obtained:
[1] = target: T1, A3AR (Mus musculus, UniProt Q61618); assay: Western blot analysis of A3AR protein in B16-F10 melanoma cells; assay type: cell-based; conditions: B16-F10 melanoma cells, Western blot
T1 construct: endogenous in cells; host or cells: B16-F10 melanoma cells
T1 sequence (Q61618 1-319): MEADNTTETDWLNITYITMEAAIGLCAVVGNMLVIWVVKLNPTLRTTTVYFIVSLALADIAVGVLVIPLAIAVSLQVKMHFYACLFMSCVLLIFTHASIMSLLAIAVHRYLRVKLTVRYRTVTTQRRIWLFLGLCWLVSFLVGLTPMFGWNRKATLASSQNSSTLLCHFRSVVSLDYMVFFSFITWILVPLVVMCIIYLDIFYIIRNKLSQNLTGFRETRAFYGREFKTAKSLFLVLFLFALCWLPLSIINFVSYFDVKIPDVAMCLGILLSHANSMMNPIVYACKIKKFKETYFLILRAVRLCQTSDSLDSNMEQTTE
Procedure: (§1) To detect the level of expression of the A3AR proteins Western blot analysis was performed. Cells were incubated in the presence and absence of IB-MECA (10 nM), MRS1523 (10 nM), Forskolin (50 nM), 8 Br cAMP (100 μM), Cycloheximide 20 μg/ml or MG 132 (20 nM) for different time periods at 37° C. Cells were then rinsed with ice-cold PBS and transferred to ice-cold lysis buffer (TNN buffer, 50 mM Tris buffer pH=7.5, 150 mM NaCl, NP 40). In the experiment examining the effect of trypsin on A3AR expression, cells were incubated with 0.5 ml of 0.25% trypsin for 5 minutes. The trypsinized cells were washed again with ice-cold PBS, harvested by centrifugation and subjected to lysis in TNN buffer. Cell debris was removed by centrifugation for 10 minutes, at 7500 xg. The supernatant was utilized for Western Blot analysis. Protein concentrations were determined using the Bio-Rad protein assay dye reagent. Equal amounts of the sample (50 μg) were separated by SDS-PAGE, using 12% polyacrylamide gels. The resolved proteins were then electroblotted onto nitrocellulose membranes (Schleicher & Schuell, Keene, NH, USA). Membranes were blocked with 1% bovine serum albumin and incubated with the desired primary antibody (dilution 1:1000) for 24 hours at 4° C. Blots were then washed and incubated with a secondary antibody for 1 hour at room temperature. Bands were recorded using BCIP/NBT color development kit (Promega, Madison, W1, USA). Data presented in the different figures are representative of at least three different experiments.
Receptor internalization by treating melanoma cells with trypsin, which removes the cell surface receptor, was examined.
Time dependent expression of A3AR in the melanoma cells was examined by Western blot analysis.

[2] = system: HCT-116 human colon carcinoma; assay: HCT-116 human colon carcinoma development in mice; assay type: in vivo; conditions: mice inoculated with HCT-116, 10 μg/kg orally daily
Procedure: Colon Carcinoma: Nude/BalbC male, 10-week-old mice were used. HCT-116 Human colon carcinoma cells (1.2×10^6 cells in 100 μL PBS) were inoculated subcutaneously to the flank of the mice. Treatment was initiated when tumors reached a size of ˜150 mm^3. Each group contained 10 mice, the control group treated with vehicle only, while the test group was administered daily orally with IB-MECA (10 μg/kg).
After 32 days the mice were sacrificed, tumor lesions were excise and protein was extracted for measurements as described above. Tumor size was evaluated by measuring with a caliber width (W) and length (L) and calculated according to the above formula.

[3] = system: A3AR, NF-κB, c-myc, cyclin D1; assay: Immunoblot analysis of proteins extracted from prostate carcinoma (PC-3) cells; assay type: cell-based
Procedure: as §1
The effect of IB-MECA on key proteins downstream to A3AR activation in prostate carcinoma cells was also examined in a manner similar to that performed with melanoma cells (see above).

[4] = system: adjuvant induced arthritis; assay: Adjuvant induced arthritis (AIA) in rats, clinical and histological score; assay type: in vivo
Procedure: AIA in Rats: Female Lewis rats, aged 8-12 weeks, obtained from Harlan Laboratories (Jerusalem, Israel), were injected subcutaneously (s.c.) at the tail base with 100 μl of suspension composed of incomplete Freund's adjuvant (IFA) with 10 mg/ml heat killed Mycobacterium tuberculosis, (Mt) H37Ra, (Difco, Detroit, USA). To assess the clinical disease activity score, the animals were inspected every second day for clinical arthritis. The scoring system ranged from 0-4 of each limb: 0-no arthritis; 1-redness or swelling of one toe/finger joint; 2-redness and swelling of more than one toe/finger joints; 3-the ankle and tarsal-metatarsal joints involvement; 4-entire paw redness or swelling. The arthritic score was calculated by adding the four individual legs' score to a maximum of 16. For histological scoring, Animals were sacrificed, the legs were removed up to the knee level, fixed in 10% formaldehyde, decalcified, dehydrated, paraffin-embedded, cut into 4 μm sections and stained by Hematoxylin-Eosin. The assessment of all pathologic findings were performed blind using semi-quantitative grading scales of 0 to 4 for the following parameters: a) extent of inflammatory cells' infiltration to the joint tissues; b) synovial lining cell hyperplasia; c) pannus formation; and d) joint cartilage layers destruction. […] TNF-α was measured in synovia, DLN and spleen tissues derived from control and CF101 treated rats. […] Protein concentrations were determined using the Bio-Rad protein assay dye reagent. […] Bands were recorded using BCIP/NBT color development kit (Promega, Madison, Wis., USA). Densitometry of protein expression was normalized against β-actin and expressed as % of control. […]

time dependent expression of A3AR ([1]; different time points): sinusoidal pattern
A3AR protein level ([1]; versus untreated cells): down-regulated
Structure (SMILES): CNC(=O)[C@H]1O[C@@H](n2cnc3c(NCc4cccc(I)c4)ncnc32)[C@H](O)[C@@H]1O [IB-MECA, 1-deoxy-1-[6[[(3-iodophenyl)methyl]amino]-9H-purine-9-yl]-N-methyl-β-D-ribofura-nuronaminde]
development of colon carcinoma (tumor size) [2]: markedly suppressed
A3AR level [3]: down-regulation
NF-κB level [3]: down-regulation
c-myc level [3]: down-regulation
cyclin D1 level [3]: down-regulation
clinical score (inflammatory response) ([4]; 10 μg/kg orally twice daily, versus vehicle): anti-inflammatory response
histological score ([4]; day 28, versus control): anti-inflammatory activity
